The test system of data set [1] is SREBP. Description: Cell-based assay system using a 6xSRE reporter vector (copGFP intensity) in HOG-GSC-6xSRE-copGFP_HIGH cells. On the set-up: dose or concentration left out as unconfirmed. The following applies: copGFP intensity normalized to DMSO control = 1, 72 hours. An excerpt: First, as shown in (a) of FIG. 1, SRE(5′-ATCACCCCAC-3′) 6 copies which are DNA seCuences to which a transcription factor, SREBP active form bonds were inserted into a minimal CMV promoter 5′ front end of a pGreenfire-Lenti-reporter vector to produce a 6xSRE reporter vector. The 6xSRE reporter vector is a vector system in which a minimal CMV promoter is activated only when SREBP in an activated form bonds to 6xSRE and copGFP is expressed, and after the vector was introduced to HOG-GSC which is a brain tumor stem cell, separation into a GFP high cell and a GFP low cell through FACS sorting was performed. Each of SREBP1a and SREBP1c in an active form was overexpressed in separated GFP-low cells (b of FIG. 1), and it was measured therefrom whether the expression amount of GFP was increased. As a result, it was confirmed that the overexpression of SREBP1a and SREBP1c active forms increased GFP expression by 43.30% and 93.49%, in separated GFP-low cells (c of FIG. 1). The separated GFP-high cells were treated with each of fatostatin and FGH10019 known to inhibit activity of DMSO and SREBP which was a control group to measure a change in the expression amount of GFP, and, as a result, it was confirmed that when treated with known materials, fatostatin and FGH10019, the expression of GFP was inhibited by up to 50% (d of FIG. 1).
HOG-GSC-6xSRE-copGFP_HIGH cells were dispensed into a 96-well plate (Corning) at 5000/well, each well was treated […], and then all wells were photographed every 3 hours for 72 hours in an incubator (ThermoFisher) at […], 5% CO2, using real-time cell imaging equipment (Incucyte) to photograph changes in copGFP intensity.

Data set [2] in a line: In vivo brain tissue distribution test after oral administration. The following applies: mouse; for Kp / Cmax / Tmax / AUC(0-inf) / AUC(0-t) / MRT inf / half-life: Hsd:ICR(CD-1R); for Kp: brain/plasma, po, 25 mg/kg, PO; for AUC(0-inf): read-out: AUCinf, Mean; for AUC(0-t): read-out: AUClast, Mean; for MRT inf: read-out: MRTinf, Mean; for half-life: read-out: t1/2, Mean (converted). As for the experimental part: • Test drug: Compound 11 • Excipient: 20% hydroxypropyl-β-cyclodextrin aqueous solution to which 1% DMSO was added 2.2. Experimental system • Mouse, Hsd:ICR(CD-1R), SPF […] (7 weeks old at the time of administration)
After obtaining the mouse, the mouse was quarantined and acclimatized for 2 weeks, and used in the experiment. An administration dose was 25 mg/kg. A dosage for each individual was calculated based on the weight after fasting for 15 hours (on the day of administration), and the drug was orally administered once using a disposable syringe (1 mL) with a zonde for oral administration attached.
After respiratory anesthesia, blood was collected by heart blood collection with a 1 mL syringe, placed in a K2-EDTA-treated tube, and centrifuged at 8,000 RPM at 4° C. for 20 minutes, and plasma was collected from a supernatant. Heat perfusion was performed on animals after blood collection, a brain tissue was harvested, and olfactory bulb, cerebellum, pones, and medulla oblongata were removed from the harvested brain tissue. The collected plasma and brain tissue were frozen and stored at −80° C. until analysis.
In order to secure a sufficient amount of analysis sample, a mixed (pulled) sample of brain tissue and blood secured from two individuals was used (securing three repetitive samples from 6 animals in one collection). Blood plasma and brain tissue were collected from a mouse of the same week of age to which the compound was not administered, and used as a blank blood plasma and a blank tissue in the material concentration analysis.
190 μL of acetonitrile was added to 10 μL of a blood plasma sample including 200 ng/mL of the internal standard material and vortexed at 2,500 RPM for 60 seconds. Thereafter, centrifugation was performed at 12,000 RPM for 5 minutes, and 50 μL of a supernatant was taken and mixed with 50 μL of acetonitrile. 2 μL thereof was injected into LC-MS/MS.
The brain tissue was weighed, third distilled water equivalent to 4 times (w/v=¼) the weight was added, and homogenization was performed using a homogenizer. 10 μL of the homogenized tissue mixed solution was taken, 190 μL of acetonitrile including 50 ng/mL of the internal standard material was added, and vortexing was performed at 2,500 RPM for 60 seconds. Thereafter, centrifugation was performed at 12,000 RPM for 10 minutes, and 2 μL of a supernatant was taken and injected into LC-MS/MS.
PK parameter was calculated with a Non-compartmental analysis model using a PKSolver2.0 software.

We go through one compound from US20250066347A1, “SUBSTITUTED THIAZOLIDINEDIONE DERIVATIVE COMPOUND, AND PHARMACEUTICAL COMPOSITION FOR PREVENTING OR TREATING CANCER, COMPRISING SAME” (MEDIFIC, INC., priority 2021, published 2025).

The structures appear in SMILES notation. Like-named read-outs stand apart in the source and are kept apart here.

In data set [1], `CC(C)(C)c1ccc(-c2cc(/C=C3\SC(=O)NC3=O)ccn2)cc1` [Compound 11, (Z)-5-((2-(4-(tert-butyl)phenyl)pyridin-4-yl)methylene)thiazolidine-2,4-dione] registered an activity of 4.6%. Besides, the Kp in data set [2] (read-out: Brain-to-plasma ratio by AUC (brain/plasma)) was 0.543. Also, the Kp in data set [2] (read-out: Brain-to-plasma ratio by concentration (brain/plasma), Average) came out at 0.47. The Kp in data set [2] (read-out: Brain-to-plasma ratio by concentration (brain/plasma), Max) was 0.777. Besides, in data set [2] (Brain (25 mg/kg, PO)), the Cmax turned out to be 12600 ng/mL, the Tmax is 3 h, the AUC(0-inf) was determined as 96.8 µg·h/mL and the AUC(0-t) came out at 96 µg·h/mL. In data set [2] (Brain (25 mg/kg, PO)), the MRT inf turned out to be 6 h and the half-life is 2.83 h. Also, in data set [2] (Plasma (25 mg/kg, PO)), the peak level (Cmax) was 20400 ng/mL, the Tmax is 1.33 h, the AUC(0-inf) was determined as 180 µg·h/mL and the AUC(0-t) was found to be 177 µg·h/mL. Besides, in data set [2] (Plasma (25 mg/kg, PO)), the MRT inf worked out at 6.95 h; the half-life is 3.08 h; the “Clobs, Mean” value is reported as 2.320 mL/min/kg; the “Vzobs, Mean” value is reported as 0.617 L/kg.
